Experimental data: patent publication US12383511B2, “Osteogenic agents and uses thereof” (GoldPorp Pharma Limited, priority 2022, dated 2025)

Assays:
Assay type in all cases: cell-based
p38 = experiment: Western blot of phosphorylated p38 and total p38; conditions: with 5 μM F4, 15 and 30 min, MC3T3-E1 osteoblasts
Description: MC3T3-E1 were lysed with 20 mM Tris pH8.0, 137 mM NaCl, 2 mM EDTA, 1% Triton X-100 and 10% Glycerol with protease inhibitor cocktail (Roche, complete). Protein concentration was determined by Bradford Protein Assay (Bio-Rad) and equal amount of proteins (30 μg) was resolved by SDS-PAGE and transferred onto PVDF membrane. The membrane was blocked with 3% BSA in Tris-buffered saline containing 0.1% Tween 20 and incubated with primary antibody (1:1000) overnight at 4° C. then incubated with HRP-linked secondary antibody for 1 h. Chemiluminescence signals were detected using enhanced chemiluminescence reagents (GE Healthcare) on X-Ray films (Fujifilm).
The levels of phosphorylated p38 and total p38 were determined by immunoblotting experiments.

MC3T3-E1 osteoblasts [1] = experiment: Alkaline phosphatase (ALP) activity assay in MC3T3-E1 osteoblasts; conditions: for effect of antagonist on F4-induced ALP activity: 5 μM F4
Description: MC3T3-E1 (passage 4-10) was maintained in Minimal Essential Media (MEM) supplemented with 10% FBS, 1 mM Sodium Pyruvate and 1% 100 ug/ml penicillin-streptomycin (100 U/ml). All reagents are from GIBCO Life Technologies.
MC3T3-E1 cells were seeded at 1×10^5 cells per well in 24-well plate. […] After treatment, cells were washed twice with PBS and lysed with buffer contains 50 mM Tris pH7.4 and 0.1% Triton X-100. After 3 freeze-thaw cycles, 40 ul of cell lysate was mixed with 50 ul of 2× Assay buffer (2-Amino-2methyl-1-propanol, pH 10.4 with 4 mM MgCl2) and 10 ul of 0.1M 4-Nitrophenyl phosphate. Incubated in 37° C. and recorded at OD410.

[2] = test system: estrogen responsive gene elements (ERE); experiment: pERE-Luc reporter gene assay in MC3T3-E1; conditions: ICI182780 10 nM and 1 μM
Description: MC3T3-E1 were seeded at 9.0×10^4 per well in 24-well plates. Twenty-four hours after cell seeding, cells were transiently transfected with 500 ng pERE-Luc (contains three repeats of estrogen-response element) by lipofectamine 2000 (Life Technologies) according to manufacturers' instruction (lipofectamine:DNA=3:1).

[3] = test system: MC3T3-E1 osteoblast cells; experiment: Osteoblast mineralization assay (Alizarin Red staining); conditions: for calcium deposition at higher vs lower concentration: 5 μM compared with […]
Description: MC3T3-E1 cells were seeded at 1×10^5 cells per well in 24-well plates. […] […] Cells were washed twice with PBS and fixed with 10% formalin for 1 hour. Fixed cell was washed twice with distilled water and stained with 2% Alizarin Red S solution (pH 4.1) in the dark for 1 hour. Stain solution was removed and washed 4 times with distilled water.

MC3T3-E1 osteoblasts [4] = experiment: Cell viability / cell number NBB assay
Description: MC3T3-E1 cells were seeded at 7×10^3 cells/well in 96-well plates for 2 days. […] After treatment, cells were fixed with 3% formalin and stained with NBB solution (0.05% NBB with 0.1 M sodium acetate and 9% acetic acid) at room temperature. Twenty four hours later, staining solution was removed and distilled water was added to remove free dye. Then, 100 ul of 50 mM […] was added to dissolve bound dye and recorded absorbance at 590 nm.

MC3T3-E1 osteoblast = experiment: mRNA expression of osteogenesis-related molecules by real-time PCR; conditions: for AFT6 mRNA expression / ALP mRNA expression / ATF3 mRNA expression / Axin2 mRNA expression / BMP2 mRNA expression / BMP7 mRNA expression / BSP mRNA expression / COL1A1 mRNA expression / Fzd1 mRNA expression / Fzd2 mRNA expression / Fzd5 mRNA expression / LRP5 mRNA expression / OCN mRNA expression / OPN mRNA expression / OSN mRNA expression / OSX mRNA expression / Runx2 mRNA expression / VDR mRNA expression / Wnt3A mRNA expression / Wnt5A mRNA expression / Wnt7B mRNA expression / Wnt11 mRNA expression: BMP2 30 ng/ml, ASC 400 μM + β-GP 5 mM, F1 5 μM, F4 5 μM, relative to DMSO control, normalized to GAPDH
Description: MC3T3-E1 cells were seeded in 6-well plates at 1×10^5 cells per well for 2 days. […] Total RNA was isolated at Day 2 and Day 4 with Trizol® reagent, 1 ug of total RNA was subjected to reverse transcription/cDNA synthesis using Superscript III first-strand synthesis system (Life Technologies).
Equal amount of cDNA generated from reverse transcription reactions were subjected to real-time PCR with SYBR® Green PCR Master Mix and primers for osteoblast differentiation markers. Primers used included: […]
Osteoblast differentiation markers genes expression were analyzed by ABI prism 7900HT Sequence Detection System and the relative level of transcript expression was quantified by ΔΔCt method.

MDA-MB-231 cells = experiment: BrdU incorporation proliferation assay; conditions: 5 μM
MCF7 cells = experiment: BrdU incorporation proliferation assay
Excerpt: The effect of F compounds on estrogen dependent cancer cells was investigated (FIG. 8). […] The fold increase of MCF7 proliferation was similar to that induced by estradiol treatment.

C[S+]([O-])c1ccc(-c2nc(-c3ccncc3)c(-c3ccc(F)cc3)[nH]2)cc1 (stereo not drawn) [SB203580, reference compound]
levels of phosphorylated p38 in F4-treated cells on addition of inhibitor (p38): reduced the levels of phosphorylated p38 | effect of MAP kinase inhibitor on F4-induced increases in ALP activity (MC3T3-E1 osteoblasts [1]; with 5 μM F4, 2 days): significantly inhibited

C[C@]12CC[C@@H]3c4ccc(O)cc4C[C@@H](CCCCCCCCC[S+]([O-])CCCC(F)(F)C(F)(F)F)[C@H]3[C@@H]1CC[C@@H]2O (stereo partly drawn) [ICI182780, reference compound]
effect of antagonist on F4-stimulated ERE promoter activity ([2]; 5 μM F4): could be inhibited | effect of antagonist on estradiol-stimulated ERE-driven promoter activity [2]: inhibited | effect of antagonist on F4-induced ALP activity (MC3T3-E1 osteoblasts [1]; day 4): no effect | effect of antagonist on F4-induced ALP activity (MC3T3-E1 osteoblasts [1]; day 7): inhibited

C=Cc1cc(O)c(C)c2c1-c1ccc(O)c(C)c1CC2 [F1]
calcium deposition at higher vs lower concentration [3]: More calcium deposition | Alizarin Red staining (calcium deposition) in cell layers ([3]; […] or 5 μM in osteoblast mineralization medium, day 14, compared with control): significantly enhanced | cell number (NBB assay) (MC3T3-E1 osteoblasts [4]; 0.625 to 10 μM): slightly increased the cell number | cell viability (NBB assay) (MC3T3-E1 osteoblasts [4]; higher concentrations (25-100 μM)): significant loss of cell viability | AFT6 mRNA expression (MC3T3-E1 osteoblast; D 2): 1.5 fold | ALP mRNA expression (MC3T3-E1 osteoblast; D 2): 1.8 fold | ATF3 mRNA expression (MC3T3-E1 osteoblast; D 2): 0.8 fold | Axin2 mRNA expression (MC3T3-E1 osteoblast; D 2): 0.9 fold | BMP2 mRNA expression (MC3T3-E1 osteoblast; D 2): 1.2 fold | BMP7 mRNA expression (MC3T3-E1 osteoblast; D 2): 1.6 fold | BSP mRNA expression (MC3T3-E1 osteoblast; D 2): 2.1 fold | COL1A1 mRNA expression (MC3T3-E1 osteoblast; D 2): 0.7 fold | Fzd1 mRNA expression (MC3T3-E1 osteoblast; D 2): 3.0 fold | Fzd2 mRNA expression (MC3T3-E1 osteoblast; D 2): 1.0 fold | Fzd5 mRNA expression (MC3T3-E1 osteoblast; D 2): 0.8 fold | LRP5 mRNA expression (MC3T3-E1 osteoblast; D 2): 0.8 fold | OCN mRNA expression (MC3T3-E1 osteoblast; D 2): 29 fold | OPN mRNA expression (MC3T3-E1 osteoblast; D 2): 1.4 fold | OSN mRNA expression (MC3T3-E1 osteoblast; D 2): 0.7 fold | OSX mRNA expression (MC3T3-E1 osteoblast; D 2): 0.6 fold | Runx2 mRNA expression (MC3T3-E1 osteoblast; D 2): 1.1 fold | VDR mRNA expression (MC3T3-E1 osteoblast; D 2): 0.9 fold | Wnt3A mRNA expression (MC3T3-E1 osteoblast; D 2): 0.9 fold | Wnt5A mRNA expression (MC3T3-E1 osteoblast; D 2): 0.8 fold | Wnt7B mRNA expression (MC3T3-E1 osteoblast; D 2): 0.8 fold | Wnt11 mRNA expression (MC3T3-E1 osteoblast; D 2): 1.1 fold | AFT6 mRNA expression (MC3T3-E1 osteoblast; D 4): 1.0 fold | ALP mRNA expression (MC3T3-E1 osteoblast; D 4): 2.9 fold | ATF3 mRNA expression (MC3T3-E1 osteoblast; D 4): 1.0 fold | Axin2 mRNA expression (MC3T3-E1 osteoblast; D 4): 1.0 fold | BMP2 mRNA expression (MC3T3-E1 osteoblast; D 4): 0.7 fold | BMP7 mRNA expression (MC3T3-E1 osteoblast; D 4): 1.1 fold | BSP mRNA expression (MC3T3-E1 osteoblast; D 4): 1.3 fold | COL1A1 mRNA expression (MC3T3-E1 osteoblast; D 4): 0.9 fold | Fzd1 mRNA expression (MC3T3-E1 osteoblast; D 4): 2.6 fold | Fzd2 mRNA expression (MC3T3-E1 osteoblast; D 4): 0.7 fold | Fzd5 mRNA expression (MC3T3-E1 osteoblast; D 4): 0.6 fold | LRP5 mRNA expression (MC3T3-E1 osteoblast; D 4): 0.6 fold | OCN mRNA expression (MC3T3-E1 osteoblast; D 4): 11 fold | OPN mRNA expression (MC3T3-E1 osteoblast; D 4): 1.8 fold | OSN mRNA expression (MC3T3-E1 osteoblast; D 4): 1.6 fold | OSX mRNA expression (MC3T3-E1 osteoblast; D 4): 0.5 fold | Runx2 mRNA expression (MC3T3-E1 osteoblast; D 4): 1.2 fold | VDR mRNA expression (MC3T3-E1 osteoblast; D 4): 0.5 fold | Wnt3A mRNA expression (MC3T3-E1 osteoblast; D 4): 2.8 fold | Wnt5A mRNA expression (MC3T3-E1 osteoblast; D 4): 0.6 fold | Wnt7B mRNA expression (MC3T3-E1 osteoblast; D 4): 1.1 fold | Wnt11 mRNA expression (MC3T3-E1 osteoblast; D 4): 0.6 fold | levels of osteocalcin (OCN) and osteoportin (OPN) mRNA (MC3T3-E1 osteoblast; treatment of cells with F1 or F4): markedly increased | cellular alkaline phosphatase (ALP) enzyme activities (MC3T3-E1 osteoblasts [1]; 0.5, 1.5, 5 μM): increased the cellular alkaline phosphatase (ALP) enzyme activities in a concentration-dependent manner | concentration at which increases in ALP activities were already evident (MC3T3-E1 osteoblasts [1]; at 24 and 48 h after treatment): 0.5 µM | concentration of maximum increase in ALP activities (MC3T3-E1 osteoblasts [1]; at 24 and 48 h after treatment): 5 µM

C=Cc1cc(O)cc2ccc3c(C)c(O)ccc3c12 [F5, dehydroeffusol]
calcium deposition at higher vs lower concentration [3]: More calcium deposition | cell proliferation induced by 17beta-estradiol in MDA-MB-231 cells (ER negative) (MDA-MB-231 cells): had no effect | MCF7 cell proliferation induced by estradiol (MCF7 cells; 5 μM): significantly suppress | MCF7 cell proliferation (MCF7 cells; dose of 5 μM or higher): inhibited the proliferation | MCF7 cell proliferation (MCF7 cells; low dose of 0.3 μM): induced MCF7 cell proliferation
